{
  "source": "patent US4317815A",
  "about": "“LH-RH Antagonists” (priority 1979, dated 1982)",
  "test_system": "mature female rats",
  "test": "Antiovulatory activity (blockade of ovulation) in proestrus female rats, test of de la Cruz et al.",
  "type": "in vivo, rat",
  "settings": "12 noon of proestrus",
  "method": "The analogs are administered in 20% propylene glycol in physiologic saline (see Table I) or as a suspension in corn oil (see Table II) at 12 noon of the day of proestrus. On the following day, the rats are sacrificed, their fallopian tubes and uteri flushed with saline and the washed examined for ova.\nThe test results for several analogs are given in Table I. In Table II, a comparison, between the compound of formula I in which X is acetyl, R^1 is D-Phe, R^2 is D-p-Cl-Phe, R^3 is D-Trp, R^4 is D-Trp and R^5 is Gly, the title compound of Example 7, and the compound of the prior art, [Ac-D-Phe^1, D-Phe^2, D-Trp^3,6 ]-LH-RH, noted hereinbefore, is shown. As noted above, a different carrier is used for administering the compounds in Table I than in Table II.",
  "key": {"[1]": {"settings": "Table I, dose 0.25 mg, in 20% propylene glycol in physiologic saline, ova examined the following day"}, "[2]": {"settings": "Table I, dose 0.062 mg, in 20% propylene glycol in physiologic saline"}, "[3]": {"settings": "Table I, dose 0.125 mg, in 20% propylene glycol in physiologic saline"}, "[4]": {"settings": "Table I, dose 0.015 mg, in 20% propylene glycol in physiologic saline"}},
  "note": "*1 amine or outer side, *2 acyl side, *3 side chain or, on linkers, in order; H or OH if unused. Where a SMILES comes first, the peptide text is derived from it. [ ]: non-standard residue; d: D form. dPhe(4-Br) = N[C@H](Cc1ccc(Br)cc1)C(=O)O; dPhe(4-Cl) = N[C@H](Cc1ccc(Cl)cc1)C(=O)O; dPhe(4-F) = N[C@H](Cc1ccc(F)cc1)C(=O)O; Suc = O=C(CCC(=O)[*:2])[*:1]",
  "data": [
    {"smiles": "CC(C)C[C@H](NC(=O)[C@@H](Cc1ccccc1)NC(=O)[C@H](Cc1ccc(O)cc1)NC(=O)[C@H](CO)NC(=O)[C@@H](Cc1c[nH]c2ccccc12)NC(=O)[C@@H](Cc1ccc(F)cc1)NC(=O)[C@H](N)Cc1ccccc1)C(=O)N[C@@H](CCCNC(=N)N)C(=O)N1CCC[C@H]1C(=O)NCC(N)=O", "note": "[D-Phenylalanyl-D-p-fluorophenylalanyl-D-tryptophyl-L-seryl-L-tyrosyl-D-phenylalanyl-L-leucyl-L-arginyl-L-prolyl-glycinamide] (H-[dF][dPhe(4-F)][dW]SY[dF]LRPG-NH2)", "values": [
      {"measurement": "% Blockade of Ovulation", "setting": "[1]", "result": 10, "unit": "%"}
    ]},
    {"smiles": "CC(=O)N[C@H](Cc1ccccc1)C(=O)N[C@H](Cc1ccc(Cl)cc1)C(=O)N[C@H](Cc1c[nH]c2ccccc12)C(=O)N[C@@H](CO)C(=O)N[C@@H](Cc1ccc(O)cc1)C(=O)N[C@H](Cc1c[nH]c2ccccc12)C(=O)N[C@@H](CC(C)C)C(=O)N[C@@H](CCCNC(=N)N)C(=O)N1CCC[C@H]1C(=O)NCC(N)=O", "note": "[Example 7, N-Acetyl-D-phenylalanyl-D-p-chlorophenylalanyl-D-tryptophyl-L-seryl-L-tyrosyl-D-tryptophyl-L-leucyl-L-arginyl-L-prolyl-glycinamide] (Ac-[dF][dPhe(4-Cl)][dW]SY[dW]LRPG-NH2)", "values": [
      {"measurement": "% Blockade of Ovulation", "setting": "Table I, dose 0.031 mg, in 20% propylene glycol in physiologic saline", "result": 64, "unit": "%"},
      {"measurement": "% Blockade of Ovulation", "setting": "[2]", "result": 100, "unit": "%"},
      {"measurement": "% Blockade of Ovulation", "setting": "Table II, dose 15 mcg, suspension in corn oil", "result": 100, "unit": "%"},
      {"measurement": "% Blockade of Ovulation", "setting": "Table II, dose 31 mcg, suspension in corn oil", "result": 100, "unit": "%"}
    ]},
    {"smiles": "CC(C)C[C@H](NC(=O)[C@@H](Cc1ccccc1)NC(=O)[C@H](Cc1ccc(O)cc1)NC(=O)[C@H](CO)NC(=O)[C@@H](Cc1c[nH]c2ccccc12)NC(=O)[C@@H](Cc1ccc(Br)cc1)NC(=O)[C@H](N)Cc1ccccc1)C(=O)N[C@@H](CCCNC(=N)N)C(=O)N1CCC[C@H]1C(=O)NCC(N)=O", "note": "[Example 8, D-Phenylalanyl-D-p-bromophenylalanyl-D-tryptophyl-L-seryl-L-tyrosyl-D-phenylalanyl-L-leucyl-L-arginyl-L-prolyl-glycinamide] (H-[dF][dPhe(4-Br)][dW]SY[dF]LRPG-NH2)", "values": [
      {"measurement": "% Blockade of Ovulation", "setting": "[1]", "result": 50, "unit": "%"}
    ]},
    {"smiles": "CC(C)C[C@H](NC(=O)[C@@H](Cc1ccccc1)NC(=O)[C@H](Cc1ccc(O)cc1)NC(=O)[C@H](CO)NC(=O)[C@@H](Cc1c[nH]c2ccccc12)NC(=O)[C@@H](Cc1ccc(Cl)cc1)NC(=O)[C@H](N)Cc1ccccc1)C(=O)N[C@@H](CCCNC(=N)N)C(=O)N1CCC[C@H]1C(=O)NCC(N)=O", "note": "[Example 9, D-Phenylalanyl-D-p-chlorophenylalanyl-D-tryptophyl-L-seryl-L-tyrosyl-D-phenylalanyl-L-leucyl-L-arginyl-L-prolyl-glycinamide] (H-[dF][dPhe(4-Cl)][dW]SY[dF]LRPG-NH2)", "values": [
      {"measurement": "% Blockade of Ovulation", "setting": "[3]", "result": 11, "unit": "%"},
      {"measurement": "% Blockade of Ovulation", "setting": "[1]", "result": 82, "unit": "%"}
    ]},
    {"smiles": "CC(C)C[C@H](NC(=O)[C@@H](Cc1ccccc1)NC(=O)[C@H](Cc1ccc(O)cc1)NC(=O)[C@H](CO)NC(=O)[C@@H](Cc1c[nH]c2ccccc12)NC(=O)[C@@H](Cc1ccc(Cl)cc1)NC(=O)[C@@H](Cc1ccccc1)NC(=O)CCC(=O)O)C(=O)N[C@@H](CCCNC(=N)N)C(=O)N1CCC[C@H]1C(=O)NCC(N)=O", "note": "[Example 10, N-Succinyl-D-phenylalanyl-D-p-chlorophenylalanyl-D-tryptophyl-L-seryl-L-tyrosyl-D-phenylalanyl-L-leucyl-L-arginyl-l-prolyl-glycinamide] (Suc-[dF][dPhe(4-Cl)][dW]SY[dF]LRPG-NH2)", "values": [
      {"measurement": "% Blockade of Ovulation", "setting": "[2]", "result": 50, "unit": "%"},
      {"measurement": "% Blockade of Ovulation", "setting": "[3]", "result": 80, "unit": "%"}
    ]},
    {"smiles": "CC(=O)N[C@H](Cc1ccc(Cl)cc1)C(=O)N[C@H](Cc1ccc(Cl)cc1)C(=O)N[C@H](Cc1c[nH]c2ccccc12)C(=O)N[C@@H](CO)C(=O)N[C@@H](Cc1ccc(O)cc1)C(=O)N[C@H](Cc1c[nH]c2ccccc12)C(=O)N[C@@H](CC(C)C)C(=O)N[C@@H](CCCNC(=N)N)C(=O)N1CCC[C@H]1C(=O)NCC(N)=O", "note": "[Example 14, N-Acetyl-D-p-chlorophenylalanyl-D-p-chlorophenylalanyl-D-tryptophyl-L-seryl-L-tyrosyl-D-tryptophyl-L-leucyl-L-arginyl-L-prolyl-glycinamide] (Ac-[dPhe(4-Cl)][dPhe(4-Cl)][dW]SY[dW]LRPG-NH2)", "values": [
      {"measurement": "% Blockade of Ovulation", "setting": "[4]", "result": 70, "unit": "%"}
    ]},
    {"smiles": "CC(=O)N[C@H](Cc1ccccc1)C(=O)N[C@H](Cc1ccc(Cl)cc1)C(=O)N[C@H](Cc1c[nH]c2ccccc12)C(=O)N[C@@H](CO)C(=O)N[C@@H](Cc1ccc(O)cc1)C(=O)N[C@H](Cc1c[nH]c2ccccc12)C(=O)N[C@@H](CC(C)C)C(=O)N[C@@H](CCCNC(=N)N)C(=O)N1CCC[C@H]1C(=O)N[C@H](C)C(N)=O", "note": "[Example 16, N-Acetyl-D-phenylalanyl-D-p-chlorophenylalanyl-D-tryptophyl-L-seryl-L-tyrosyl-D-tryptophyl-L-leucyl-L-arginyl-L-prolyl-D-alaninamide] (Ac-[dF][dPhe(4-Cl)][dW]SY[dW]LRP[dA]-NH2)", "values": [
      {"measurement": "% Blockade of Ovulation", "setting": "[4]", "result": 100, "unit": "%"}
    ]},
    {"smiles": "CC(=O)N[C@H](Cc1ccccc1)C(=O)N[C@H](Cc1ccccc1)C(=O)N[C@H](Cc1c[nH]c2ccccc12)C(=O)N[C@@H](CO)C(=O)N[C@@H](Cc1ccc(O)cc1)C(=O)N[C@H](Cc1c[nH]c2ccccc12)C(=O)N[C@@H](CC(C)C)C(=O)N[C@@H](CCCNC(=N)N)C(=O)N1CCC[C@H]1C(=O)NCC(N)=O", "note": "[[Ac-D-Phe^1, D-Phe^2, D-Trp^3,6]-LH-RH, reference compound] (Ac-[dF][dF][dW]SY[dW]LRPG-NH2)", "values": [
      {"measurement": "% Blockade of Ovulation", "setting": "Table II, dose 100 mcg, suspension in corn oil", "result": 40, "unit": "%"},
      {"measurement": "% Blockade of Ovulation", "setting": "Table II, dose 250 mcg, suspension in corn oil", "result": 100, "unit": "%"}
    ]}
  ]
}
